Patent US3962243A (Laboratories Made, S.A., priority 1974, dated 1976)

Legend:
bronchial spasm = assay: Bronchial spasmolytic action; type: in vivo
mice = assay: Sub-acute and chronic toxicity; type: in vivo; details: administration to mice over periods of 2 and 6 months
[1] = test system: rat complete brain homogenates; assay: Action on cerebral oxidative activity (oxygen consumption); details: 1 × 10^-^3 and 1 × 10^-^4 M

2-[(2-dimethylaminoethyl) (p-methoxybenzyl)amino]-pyridine 1,2,3,6-tetrahydro-1,3-dimethyl-2,6-dioxopurin-7-acetate
duration of activity, bronchial spasmolytic action (bronchial spasm; in vivo): over 5 hours | action against bronchial spasm by route (bronchial spasm; oral, rectal, intramuscular and intravenous): Effective action against bronchial spasm is obtainable by all routes | active dose, bronchial spasmolytic action (bronchial spasm; very small doses): 6 µg/kg | microscopic or macroscopic organ alteration (mice): No microscopic or macroscopic organ alteration | inhibition of the oxygen consumption [1]: strong inhibition of the oxygen consumption
